Experimental data from ChEMBL document CHEMBL5352474, “Synthesis and in vitro antileishmanial activity of alkylene-linked nitrofurantoin-triazole hybrids” (Eur J Med Chem, 2023).

Assays:
[1] = Cytotoxicity against HEK293 cells assessed as inhibition of cell growth incubated for 48 hrs by resazurin dye based assay; type: toxicity; details: human
[2] = tested on: Leishmania major; test: Leishmanicidal activity against Leishmania major IR-173 amastigote infected in human THP-1 cells incubated for 72 hrs by resazurin dye based analysis; type: functional, organism-based; details: IR-173, THP-1, 72 h
[3] = tested on: Leishmania donovani; test: Antileishmanial activity against Leishmania donovani 9515 amastigote infected in human THP-1 cells assessed as static activity by measuring inhibition of parasite growth incubated for 72 hrs by resazurin dye based assay; type: functional, organism-based; details: Leishmania donovani, 9515, THP-1, 72 h
[4] = tested on: Leishmania donovani; test: Antileishmanial activity against Leishmania donovani 9515 promastigotes assessed as inhibition of parasite growth incubated for 48 hrs by resazurin dye based assay; type: functional, organism-based; details: Leishmania donovani, 9515, 48 h
[5] = tested on: Leishmania donovani; test: Leishmanicidal activity against Leishmania donovani 9515 amastigote infected in human THP-1 cells incubated for 72 hrs by resazurin dye based analysis; type: functional, organism-based; details: Leishmania donovani, 9515, THP-1, 72 h
[6] = Selectivity index, ratio of IC50 for cytotoxicity against HEK293 cells to IC50 for antileishmanial activity against Leishmania major IR-173 promastigotes; type: toxicity, cell-based; details: human, read-out: Ratio IC50
[7] = tested on: Leishmania major; test: Antileishmanial activity against Leishmania major IR-173 amastigote infected in human THP-1 cells assessed as static activity by measuring inhibition of parasite growth incubated for 72 hrs by resazurin dye based assay; type: functional, organism-based; details: IR-173, THP-1, 72 h
[8] = tested on: Leishmania major; test: Antileishmanial activity against Leishmania major IR-173 promastigotes assessed as inhibition of parasite growth incubated for 48 hrs by resazurin dye based assay; type: functional, organism-based; details: IR-173, 48 h
[9] = Selectivity index, ratio of IC50 for cytotoxicity against HEK293 cells to IC50 for antileishmanial activity against Leishmania donovani 9515 promastigotes; type: toxicity, cell-based; details: human, read-out: Ratio IC50

Row | Compound | IC50 at 48 h [1] [µM] | IC50 [2] [µM] | IC50 [3] [µM] | IC50 [4] [nM] | IC50 [5] [µM] | selectivity ratio [6] | IC50 [7] [µM] | IC50 [8] [nM] | selectivity ratio [9]
1 | O=C1CN(/N=C/c2ccc([N+](=O)[O-])o2)C(=O)N1CCCCCCn1cc(-c2ccc(F)cc2)nn1 | 8.97 | > 10 | > 10 | > 10000 | > 10 | 40 | > 10 | 220 | –
2 | CCCCCc1ccc(-c2cn(CCCCCCN3C(=O)CN(/N=C/c4ccc([N+](=O)[O-])o4)C3=O)nn2)cc1 | – | > 10 | > 10 | 50 | > 10 | – | > 10 | 2190 | –
3 | COc1ccc(-c2cn(CCCCCN3C(=O)CN(/N=C/c4ccc([N+](=O)[O-])o4)C3=O)nn2)cc1 | 22.7 | > 10 | > 10 | > 10000 | > 10 | 45 | > 10 | 500 | –
4 | O=C1CN(/N=C/c2ccc([N+](=O)[O-])o2)C(=O)N1CCCCCCn1cc(CSc2ccccc2)nn1 | 19.6 | > 10 | > 10 | 60 | > 10 | 7 | > 10 | 2750 | 327
5 | O=C1CN(/N=C/c2ccc([N+](=O)[O-])o2)C(=O)N1CCCCCn1cc(-c2cc(C(F)(F)F)cc(C(F)(F)F)c2)nn1 | 17.7 | > 10 | > 10 | > 10000 | > 10 | – | > 10 | > 10000 | –
6 | CCCCCCc1cn(CCCCCCN2C(=O)CN(/N=C/c3ccc([N+](=O)[O-])o3)C2=O)nn1 | 83.4 | > 10 | > 10 | 480 | > 10 | 16 | > 10 | 5300 | 174
7 | CCCCCCc1cn(CCCCCN2C(=O)CN(/N=C/c3ccc([N+](=O)[O-])o3)C2=O)nn1 | 65.9 | > 10 | > 10 | 610 | > 10 | 44 | > 10 | 1500 | 108
8 | O=C1CN(/N=C/c2ccc([N+](=O)[O-])o2)C(=O)N1CCCn1cc(-c2ccc(F)cc2)nn1 | > 100 | > 10 | > 10 | > 10000 | > 10 | > 135 | > 10 | 740 | –
9 | O=C1CN(/N=C/c2ccc([N+](=O)[O-])o2)C(=O)N1CCCn1cc(-c2cc(C(F)(F)F)cc(C(F)(F)F)c2)nn1 | 30.6 | > 10 | > 10 | 1200 | > 10 | 46 | > 10 | 670 | 26
10 | Cc1ccc(-c2cn(CCCCCN3C(=O)CN(/N=C/c4ccc([N+](=O)[O-])o4)C3=O)nn2)cc1 | 13.9 | > 10 | > 10 | > 10000 | > 10 | 8 | > 10 | 1860 | –
11 | CCCCCCCCc1cn(CCCCCN2C(=O)CN(/N=C/c3ccc([N+](=O)[O-])o3)C2=O)nn1 | 28.6 | > 10 | > 10 | > 10000 | > 10 | – | > 10 | > 10000 | –
12 | CCCCCc1ccc(-c2cn(CCCCCN3C(=O)CN(/N=C/c4ccc([N+](=O)[O-])o4)C3=O)nn2)cc1 | 9.73 | > 10 | > 10 | > 10000 | > 10 | – | > 10 | > 10000 | –
13 | O=C1CN(/N=C/c2ccc([N+](=O)[O-])o2)C(=O)N1CCCCCn1cc(-c2ccc(F)cc2)nn1 | 37.2 | > 10 | > 10 | > 10000 | > 10 | 40 | > 10 | 980 | –
14 | O=C1CN(/N=C/c2ccc([N+](=O)[O-])o2)C(=O)N1CCCCCn1cc(CSc2ccccc2)nn1 | 87.9 | > 10 | > 10 | 10 | > 10 | 52 | > 10 | 1700 | 8790
15 | O=C1CN(/N=C/c2ccc([N+](=O)[O-])o2)C(=O)N1CCCCCCn1cc(-c2cc(C(F)(F)F)cc(C(F)(F)F)c2)nn1 | – | > 10 | > 10 | 5350 | > 10 | – | > 10 | 800 | –
16 | COc1ccc(-c2cn(CCCCCCN3C(=O)CN(/N=C/c4ccc([N+](=O)[O-])o4)C3=O)nn2)cc1 | 5.39 | > 10 | > 10 | 230 | > 10 | 9 | > 10 | 590 | 23
17 | Cc1ccc(-c2cn(CCCCCCN3C(=O)CN(/N=C/c4ccc([N+](=O)[O-])o4)C3=O)nn2)cc1 | 31.1 | > 10 | > 10 | 980 | > 10 | 47 | > 10 | 660 | 32
18 | CCCCCc1cn(CCCCCCN2C(=O)CN(/N=C/c3ccc([N+](=O)[O-])o3)C2=O)nn1 | 15.5 | > 10 | > 10 | > 10000 | > 10 | 57 | > 10 | 270 | –
19 | CCCCc1cn(CCCCCCN2C(=O)CN(/N=C/c3ccc([N+](=O)[O-])o3)C2=O)nn1 | 44.5 | > 10 | > 10 | > 10000 | > 10 | 37 | > 10 | 1190 | –
20 | CCCCCCCCc1cn(CCCCCCN2C(=O)CN(/N=C/c3ccc([N+](=O)[O-])o3)C2=O)nn1 | 50.3 | > 10 | > 10 | 110 | > 10 | 19 | > 10 | 2620 | 457
21 | CCCCCCCCc1cn(CCCN2C(=O)CN(/N=C/c3ccc([N+](=O)[O-])o3)C2=O)nn1 | 11.5 | > 10 | > 10 | > 10000 | > 10 | 16 | > 10 | 730 | –
22 | CCCCCc1ccc(-c2cn(CCCN3C(=O)CN(/N=C/c4ccc([N+](=O)[O-])o4)C3=O)nn2)cc1 | 79.8 | > 10 | > 10 | > 10000 | > 10 | – | > 10 | > 10000 | –
23 | C[C@@H]1[C@H](O)[C@@H](C)/C=C/C=C/C=C/C=C/C=C/C=C/C=C/[C@H](O[C@@H]2O[C@H](C)[C@@H](O)[C@H](N)[C@@H]2O)C[C@@H]2O[C@](O)(C[C@@H](O)C[C@@H](O)[C@H](O)CC[C@@H](O)C[C@@H](O)CC(=O)O[C@H]1C)C[C@H](O)[C@H]2C(=O)O [AMPHOTERICIN B] | – | – | – | – | – | – | 0.03 | – | –
24 | CC[C@H]1CN2CCc3cc(OC)c(OC)cc3[C@@H]2C[C@@H]1C[C@H]1NCCc2cc(OC)c(OC)cc21 [EMETINE] | 0.01 | – | – | – | – | – | – | – | –
